The target in the experiment is full-length recombinant human FYN A (Homo sapiens (Human), UniProt P06241). Kind of experiment: ADP-Glo Kinase Assay of FYN kinase inhibition. Type of experiment: biochemical. The following applies: primary screen, initial compounds. In short, it runs like this:
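GST-tagged full-length FYN A (baculovirus, Sf9) at 3 pg preincubated 30 min RT with compound (10-point 3-fold series from 10 μM) in Tris pH 7.5/MgCl2 buffer. 12-mer tyrosine peptide plus 12.5 pmol ATP added, 90 min RT; ADP measured by ADP-Glo luminescence, IC50 from dose-response.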
For orientation: ADP-Glo first removes unused ATP, then detects ADP through luciferase.

Sequence of full-length recombinant human FYN A (P06241 whole entry): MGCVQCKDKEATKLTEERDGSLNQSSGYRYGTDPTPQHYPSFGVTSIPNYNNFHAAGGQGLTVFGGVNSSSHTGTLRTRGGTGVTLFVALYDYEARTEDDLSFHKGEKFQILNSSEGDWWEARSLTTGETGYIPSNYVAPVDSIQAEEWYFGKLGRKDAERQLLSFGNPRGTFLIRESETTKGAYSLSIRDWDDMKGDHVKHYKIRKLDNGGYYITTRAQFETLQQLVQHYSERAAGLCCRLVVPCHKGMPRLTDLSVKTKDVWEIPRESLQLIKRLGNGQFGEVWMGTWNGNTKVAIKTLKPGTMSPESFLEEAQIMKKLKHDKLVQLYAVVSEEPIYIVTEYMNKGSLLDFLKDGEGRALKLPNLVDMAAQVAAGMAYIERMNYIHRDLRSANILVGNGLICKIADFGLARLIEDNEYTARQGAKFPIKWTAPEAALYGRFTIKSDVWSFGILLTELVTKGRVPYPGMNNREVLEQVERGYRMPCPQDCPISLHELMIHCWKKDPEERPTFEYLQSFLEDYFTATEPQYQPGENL

The IC50 is the concentration that inhibits the measured activity by half. As to `OCc1cccc(-c2cnc3ccc(-c4ccoc4)nn23)c1` [Compound 336, [3-[6-(3-furyl)imidazo [1,2-b]pyridazin-3-yl]phenyl] methanol], the IC50 is 3990 nM.
The value for `CN(C)c1ccc(-c2ccc3ncc(-c4ccncc4)n3n2)cc1` [Compound 337, N,N-dimethyl-4-[3-(4-pyridyl)imidazo[1,2-b]pyridazin-6-yl]aniline] was 398 nM; that for `CS(=O)(=O)c1ccc(-c2ccc3ncc(-c4cccc(CO)c4)n3n2)cc1` [Compound 338, [3-[6-(4-methylsulfonyl-phenyl)imidazo [1,2-b]pyridazin-3-yl]phenyl] methanol] was 3040 nM.
Next, `CC(=O)Nc1cccc(-c2ccc3ncc(-c4ccccc4)n3n2)c1` [Compound 339, N-[3-(3-phenylimidazo [1,2-b]pyridazin-6-yl)phenyl] acetamide]: 3660 nM; `c1ccc(-c2ccc3ncc(-c4ccncc4)n3n2)cc1` [Compound 340, 6-phenyl-3-(4-pyridyl)imidazo [1,2-b]pyridazine]: 229 nM.
As for `Fc1cccc(-c2ccc3ncc(-c4ccncc4)n3n2)c1` [Compound 341, 6-(3-fluorophenyl)-3-(4-pyridyl) imidazo[1,2-b]pyridazine], the IC50 stood at 356 nM.
Regarding `COc1cccc(-c2ccc3ncc(-c4ccc(OC)c(OC)c4)n3n2)c1` [Compound 342, 3-(3,4-dimethoxy-phenyl)-6-(3-methoxyphenyl) imidazo[1,2-b]pyridazine], the IC50 is 952 nM.
The value for `COc1cncc(-c2ccc3ncc(-c4cccc(NC(C)=O)c4)n3n2)c1` [Compound 343, N-[3-[6-(5-methoxy-3-pyridyl)imidazo [1,2-b]pyridazin-3-yl]phenyl] acetamide] was 614 nM; that for `COc1cncc(-c2ccc3ncc(-c4cccc(CO)c4)n3n2)c1` [Compound 344] was 2140 nM.
Next, `c1cc(-c2cnc3ccc(-c4ccc5c(c4)OCO5)nn23)ccn1` [Compound 345, 6-(1,3-benzodioxol-5-yl)-3-(4-pyridyl)imidazo [1,2-b]pyridazine]: 217 nM; `c1cc(-c2cnc3ccc(-c4ccoc4)nn23)ccn1` [Compound 346, 6-(3-furyl)-3-(4-pyridyl)imidazo [1,2-b]pyridazine]: 1020 nM; `CC(=O)Nc1cccc(-c2cnc3ccc(-c4cccc(Cl)c4)nn23)c1` [Compound 347, N-[3-[6-(3-chlorophenyl)imidazo[1,2-b]pyridazin-3-yl]phenyl] acetamide]: 370 nM.
The value for `COc1cccc(-c2ccc3ncc(-c4cccc(NC(C)=O)c4)n3n2)c1` [Compound 348, N-[3-[6-(3-methoxyphenyl)imidazo[1,2-b]pyridazin-3-yl]phenyl] acetamide] was 409 nM; that for `OCc1cccc(-c2cnc3ccc(-c4cccc(O)c4)nn23)c1` [Compound 349, 3-[3-[3-(hydroxymethyl)phenyl]imidazo [1,2-b]pyridazin-6-yl]phenol] was 954 nM.
Regarding `NC(=O)c1ccc(-c2ccc3ncc(-c4ccccc4)n3n2)cc1` [Compound 350, 4-(3-phenylimidazo [1,2-b]pyridazin-6-yl)benzamide], the IC50 is 2140 nM.
For the compound `Oc1cccc(-c2ccc3ncc(-c4ccc5c(c4)OCO5)n3n2)c1` [Compound 351, 3-[3-(1,3-benzodioxol-5-yl)imidazo[1,2-b]pyridazin-6-yl]phenol], the IC50 is 915 nM.
Next, `c1ccc(-c2ccc3ncc(-c4cccnc4)n3n2)cc1` [Compound 352, 6-phenyl-3-(3-pyridyl)imidazo [1,2-b]pyridazine]: 1940 nM.
Next, `c1cncc(-c2cnc3ccc(-c4cccs4)nn23)c1` [Compound 353, 3-(3-pyridyl)-6-(2-thienyl) imidazo[1,2-b] pyridazine]: 346 nM; `CC(=O)Nc1cccc(-c2cnc3ccc(-c4cccc(C(C)=O)c4)nn23)c1` [Compound 354, N-[3-[6-(3-acetylphenyl)imidazo[1,2-b]pyridazin-3-yl]phenyl] acetamide]: 466 nM.

The values above are taken from patent US10688093B2, “Methods, compositions, and uses of novel Fyn kinase inhibitors” (priority 2015, dated 2020).
